Data taken from the supplement of paper PMC11451515.

Tested on: P12-Ichikawa
Assay: cell viability relative to DMSO control; higher = less cytotoxic
Settings: 48 h
In short: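 Viability, reported as a per-plate percentage of DMSO wells with cell-free wells as background, came from CellTiter-Glo One luminescence. Reading took place after 48 h at 37°C. Before that, NOMO1 or SEM (500 cells/well) or P12-Ichikawa (1000 cells/well) leukemia cells, adapted for at least four passages in each medium, were seeded in 1536-well plates (5 μl) and pin-dosed with library compounds in DMSO, 47 μM to 0.79 nM over 11 threefold points.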

[1] = HPLM + 10% dialyzed FBS, 0.000781 µM
[2] = HPLM + 10% dialyzed FBS, 0.00234 µM
[3] = HPLM + 10% dialyzed FBS, 0.00702 µM
[4] = HPLM + 10% dialyzed FBS, 0.0211 µM
[5] = HPLM + 10% dialyzed FBS, 0.0632 µM
[6] = HPLM + 10% dialyzed FBS, 0.19 µM
[7] = HPLM + 10% dialyzed FBS, 0.569 µM
[8] = HPLM + 10% dialyzed FBS, 1.71 µM
[9] = HPLM + 10% dialyzed FBS, 5.12 µM
[10] = HPLM + 10% dialyzed FBS, 15.4 µM
[11] = HPLM + 10% dialyzed FBS, 46.1 µM
[12] = RPMI 5 mM glucose + 10% FBS, 0.000781 µM
[13] = RPMI 5 mM glucose + 10% FBS, 0.00234 µM
[14] = RPMI 5 mM glucose + 10% FBS, 0.00702 µM
[15] = RPMI 5 mM glucose + 10% FBS, 0.0211 µM
[16] = RPMI 5 mM glucose + 10% FBS, 0.0632 µM
[17] = RPMI 5 mM glucose + 10% FBS, 0.19 µM
[18] = RPMI 5 mM glucose + 10% FBS, 0.569 µM
[19] = RPMI 5 mM glucose + 10% FBS, 1.71 µM
[20] = RPMI 5 mM glucose + 10% FBS, 5.12 µM
[21] = RPMI 5 mM glucose + 10% FBS, 15.4 µM
[22] = RPMI 5 mM glucose + 10% FBS, 46.1 µM
[23] = RPMI 5 mM glucose + 10% dialyzed FBS, 0.000781 µM
[24] = RPMI 5 mM glucose + 10% dialyzed FBS, 0.00234 µM
[25] = RPMI 5 mM glucose + 10% dialyzed FBS, 0.00702 µM
[26] = RPMI 5 mM glucose + 10% dialyzed FBS, 0.0211 µM
[27] = RPMI 5 mM glucose + 10% dialyzed FBS, 0.0632 µM
[28] = RPMI 5 mM glucose + 10% dialyzed FBS, 0.19 µM
[29] = RPMI 5 mM glucose + 10% dialyzed FBS, 0.569 µM
[30] = RPMI 5 mM glucose + 10% dialyzed FBS, 1.71 µM
[31] = RPMI 5 mM glucose + 10% dialyzed FBS, 5.12 µM
[32] = RPMI 5 mM glucose + 10% dialyzed FBS, 15.4 µM
[33] = RPMI 5 mM glucose + 10% dialyzed FBS, 46.1 µM

| SMILES | cell viability [1] [%] | cell viability [2] [%] | cell viability [3] [%] | cell viability [4] [%] | cell viability [5] [%] | cell viability [6] [%] | cell viability [7] [%] | cell viability [8] [%] | cell viability [9] [%] | cell viability [10] [%] | cell viability [11] [%] | cell viability [12] [%] | cell viability [13] [%] | cell viability [14] [%] | cell viability [15] [%] | cell viability [16] [%] | cell viability [17] [%] | cell viability [18] [%] | cell viability [19] [%] | cell viability [20] [%] | cell viability [21] [%] | cell viability [22] [%] | cell viability [23] [%] | cell viability [24] [%] | cell viability [25] [%] | cell viability [26] [%] | cell viability [27] [%] | cell viability [28] [%] | cell viability [29] [%] | cell viability [30] [%] | cell viability [31] [%] | cell viability [32] [%] | cell viability [33] [%] |
| --- | --- | --- | --- | --- | --- | --- | --- | --- | --- | --- | --- | --- | --- | --- | --- | --- | --- | --- | --- | --- | --- | --- | --- | --- | --- | --- | --- | --- | --- | --- | --- | --- | --- |
| Clc1cccc(-c2nnnn2Cc2cccnc2)c1Cl | 88.7 | 96 | 92.4 | 95.5 | 94.9 | 87.4 | 77.9 | 74.1 | 74.5 | 70.4 | 56.6 | 88.5 | 91.2 | 86.6 | 91.1 | 96.1 | 93.7 | 94.9 | 65.7 | 57 | 60.6 | 56.7 | 86.1 | 91.3 | 93.9 | 95.2 | 93.8 | 88.9 | 86.4 | 64.3 | 61.8 | 65.7 | 48.6 |
| Cc1[nH]c(/C=C2\C(=O)Nc3ccc([S+](=O)([O-])N(C)c4cccc(Cl)c4)cc32)c(C)c1C(=O)N1CCN(C)CC1 | 118 | 130 | 124 | 119 | 126 | 127 | 119 | 110 | 111 | 76.7 | 0.631 | – | – | – | – | – | – | – | – | – | – | – | – | – | – | – | – | – | – | – | – | – | – |
| CCNC(=O)C[C@@H]1\N=C(C2=CC=C(Cl)C=C2)/C3=C(C=CC(=C3)OC)[N]4C(=NN=C14)C | 106 | 115 | 106 | 114 | 105 | 103 | 92.1 | 83.5 | 78.2 | 50.1 | 17 | 114 | 111 | 127 | 106 | 105 | 111 | 101 | 84.7 | 76 | 56.2 | 37.8 | 115 | 118 | 115 | 117 | 106 | 106 | 95.7 | 84 | 75.8 | 60.4 | 35.9 |
| C#Cc1cccc(Nc2ncnc3cc(OCCOC)c(OCCO)cc23)c1 | 113 | 111 | 113 | 109 | 112 | 113 | 122 | 104 | 105 | 91.6 | 46.2 | 118 | 101 | 107 | 119 | 110 | 119 | 111 | 109 | 98.5 | 95.7 | 49.4 | 115 | 110 | 118 | 110 | 113 | 108 | 106 | 111 | 104 | 91.5 | 43.3 |
| CC#C[C@]1(O)CC[C@H]2[C@@H]/3CCC/4=C/C(=O)CCC4=C3[C@H](C[C@]12C)C5=CC=C(C=C5)N(C)C | 101 | 101 | 103 | 105 | 107 | 110 | 107 | 98.7 | 102 | 75.1 | 73.1 | 95.6 | 108 | 105 | 104 | 105 | 93.9 | 106 | 87.4 | 83.4 | 61.2 | 30.8 | 80 | 94 | 92.7 | 98.9 | 102 | 97.6 | 93 | 95.9 | 83 | 51.5 | 39.6 |
| Cc1nc(Nc2ncc(C(=O)Nc3c(C)cccc3Cl)s2)cc(N2CCN(CCO)CC2)n1 | 108 | 104 | 110 | 104 | 111 | 107 | 107 | 69.6 | 14.2 | 15.5 | 15 | 106 | 109 | 102 | 108 | 113 | 109 | 107 | 102 | 56.8 | 21.3 | 23.4 | 104 | 104 | 113 | 103 | 107 | 106 | 109 | 99.3 | 45.5 | 33.7 | 35.3 |
| O=C1CSC(=O)N1C(CCc1ccncc1)COc1ccc(-c2cccc([N+](=O)[O-])c2)cc1 (stereo not drawn) | 115 | 119 | 122 | 118 | 118 | 115 | 111 | 111 | 95.7 | 108 | 90.1 | 122 | 134 | 116 | 107 | 114 | 91.3 | 99.1 | 110 | 87.4 | 93.7 | 82.3 | – | – | – | – | – | – | – | – | – | – | – |
| CCC(=O)O[C@@]1([C@@H](C)C[C@H]2[C@@H]3CCC/4=C/C(=O)/C=C\[C@]4(C)[C@@]3(F)[C@@H](O)C[C@]12C)C(=O)CCl | 118 | 121 | 101 | 86.8 | 79.2 | 73 | 76.9 | 76.9 | 70.2 | 68.6 | 55 | – | – | – | – | – | – | – | – | – | – | – | 134 | 107 | 83.8 | 79.9 | 59.9 | 61.3 | 56.2 | 57 | 54.1 | 51.3 | 38.5 |
| CC(C)(C)/[N+]([O-])=C/c1ccc([S+](=O)([O-])[O][Na])cc1[S+](=O)([O-])[O][Na] | 110 | 114 | 112 | 122 | 117 | 131 | 127 | 125 | 121 | 119 | 133 | 108 | 96.5 | 108 | 111 | 120 | 123 | 127 | 122 | 126 | 124 | 122 | 108 | 114 | 114 | 121 | 113 | 120 | 124 | 123 | 120 | 119 | 116 |
